# Measurements reported in patent publication US20060069132A1, “Azolecarboxamide herbicides” (priority 2004, published 2006).
# Read-outs that look alike come from different tables or passages of the source.
# Legend:
# morningglory = experiment: Test B pre-/postemergence herbicide test; type: in vivo, Ipomoea coccinea; conditions: Ipomoea, 336 h; for pest or weed control at 125 g/ha: 125 g ai/ha; for pest or weed control at 500 g/ha: 500 g ai/ha
# Summary of the method: (§1)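 Greenhouse pot assay with simultaneous preemergence (treated seed) and postemergence (2–18 cm seedlings) applications of surfactant-containing, non-phytotoxic solvent formulations. Response scored visually 13–15 days later on a 0–100 scale, 100 meaning complete control.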
# pigweed = experiment: Test B pre-/postemergence herbicide test; type: in vivo, Amaranthus retroflexus; conditions: Amaranthus retroflexus, 336 h; for pest or weed control at 125 g/ha: 125 g ai/ha; for pest or weed control at 500 g/ha: 500 g ai/ha
# Summary of the method: (§2)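 Herbicidal effect was judged by eye on a 0–100 scale after plants stood 13 to 15 days in the greenhouse following pre- or postemergence treatment with surfactant-containing formulations.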
# ducksalad = experiment: Test B flooded paddy test; type: in vivo, Heteranthera limosa; conditions: Heteranthera limosa, 336 h, 1000 g ai/ha, scale 0 to 100 (0 no effect, 100 complete control), read-out: Ducksalad plant response rating
# Summary of the method: (§3)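 Greenhouse test; postemergence application to plants at 1–4 leaves (2–18 cm); paddy species at 2 leaves; evaluated visually vs controls at 13–15 days; scale 0–100 (100 = complete control).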
# [1] = test system: small flower umbrella sedge; experiment: Test B flooded paddy test; type: in vivo, Cyperus difformis; conditions: Cyperus difformis, 336 h, 1000 g ai/ha, scale 0 to 100 (0 no effect, 100 complete control), read-out: Sedge, Umbrella plant response rating
# Summary of the method: as §3
# giant foxtail = experiment: Test B pre-/postemergence herbicide test; type: in vivo, Setaria faberi; conditions: Setaria faberi, 336 h; for pest or weed control at 125 g/ha: 125 g ai/ha; for pest or weed control at 500 g/ha: 500 g ai/ha
# Summary of the method: as §2
# barnyardgrass [2] = experiment: Test B pre-/postemergence herbicide test; type: in vivo, Echinochloa crus-galli; conditions: Echinochloa crus-galli, pre-emergence, 0 = no effect, 100 = complete control
# Summary of the method: as §1
# blackgrass = experiment: Test B postemergence herbicide test; type: in vivo, Alopecurus myosuroides; conditions: Alopecurus myosuroides, post-emergence, 336 h, postemergence, visual rating, scale 0 (no effect) to 100 (complete control), read-out: Blackgrass plant response rating
# Summary of the method: as §3
# Surinam grass = experiment: Test B pre-/postemergence herbicide test; type: in vivo, Urochloa decumbens; conditions: Urochloa decumbens; for pest or weed control at 125 g/ha: 125 g ai/ha; for pest or weed control at 500 g/ha: 500 g ai/ha
# Summary of the method: as §2
# velvetleaf = experiment: Test B pre-/postemergence herbicide test; type: in vivo, Abutilon theophrasti; conditions: Abutilon theophrasti, 336 h; for pest or weed control at 125 g/ha: 125 g ai/ha; for pest or weed control at 500 g/ha: 500 g ai/ha
# Summary of the method: as §2
# wheat = experiment: Test B postemergence herbicide test; type: in vivo, Triticum aestivum; conditions: Triticum aestivum, post-emergence, 336 h, postemergence, visual rating, scale 0 (no effect) to 100 (complete control), read-out: Wheat plant response rating
# Summary of the method: (§4)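 Postemergence plants were sprayed with formulated test chemicals at 2 to 18 cm height (1- to 4-leaf stage); paddy species were grown to the 2-leaf stage. After 13 to 15 days in a greenhouse, injury was rated visually against untreated controls on a 0–100 scale (0 = no effect, 100 = complete control).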
# wild oat = experiment: Test B postemergence herbicide test; type: in vivo, Avena fatua; conditions: Avena fatua, post-emergence, 336 h, postemergence, visual rating, scale 0 (no effect) to 100 (complete control), read-out: Oat, Wild plant response rating
# Summary of the method: as §4
# corn = experiment: Test B pre-/postemergence herbicide test; type: in vivo, Zea mays; conditions: Zea mays; for plant injury at 125 g/ha: 125 g ai/ha
# Summary of the method: as §2
# barnyardgrass [3] = experiment: Test B flooded paddy test; type: in vivo, Echinochloa crus-galli; conditions: Echinochloa crus-galli, 336 h, 1000 g ai/ha, scale 0 to 100 (0 no effect, 100 complete control), read-out: Barnyardgrass plant response rating
# Summary of the method: as §3
# rice = experiment: Test B flooded paddy test; type: in vivo, Oryza sativa; conditions: Oryza sativa, 336 h, 1000 g ai/ha, scale 0 to 100 (0 no effect, 100 complete control), read-out: Rice plant response rating
# Summary of the method: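 Treated at 2-leaf (paddy) or 1–4-leaf, 2–18 cm (postemergence); greenhouse 13–15 d; visual score vs control, 0 none to 100 complete control; dash = not tested.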
# large crabgrass = experiment: Test B pre-/postemergence herbicide test; type: in vivo, Digitaria sanguinalis; conditions: Digitaria sanguinalis; for pest or weed control at 125 g/ha: 125 g ai/ha; for pest or weed control at 500 g/ha: 500 g ai/ha
# Summary of the method: as §2
# [4] = post-emergence, postemergence, visual rating, scale 0 (no effect) to 100 (complete control), read-out: Morningglory plant response rating
# [5] = post-emergence, postemergence, visual rating, scale 0 (no effect) to 100 (complete control), read-out: Pigweed plant response rating
# [6] = post-emergence, postemergence, visual rating, scale 0 (no effect) to 100 (complete control), read-out: Foxtail, Giant plant response rating
# [7] = post-emergence, postemergence, visual rating, scale 0 (no effect) to 100 (complete control), read-out: Surinam Grass plant response rating
# [8] = post-emergence, postemergence, visual rating, scale 0 (no effect) to 100 (complete control), read-out: Velvetleaf plant response rating
# [9] = post-emergence, postemergence, visual rating, scale 0 (no effect) to 100 (complete control), read-out: Crabgrass, Large plant response rating
smiles,measurement,setting,value
"CCn1nc(C(C)(C)C)cc1C(=O)Nc1ccc(F)c(C(=O)N(C)C)c1 [Compound 236, N-[3-[(dimethylamino)carbonyl]-4-fluorophenyl]-3-(1,1-dimethylethyl)-1-ethyl-1H-pyrazole-5-carboxamide]",pest or weed control at 125 g/ha,morningglory; [4],10%
same,pest or weed control at 500 g/ha,morningglory; [4],60%
same,pest or weed control at 125 g/ha,"morningglory; pre-emergence, 0 = no effect, 100 = complete control, read-out: Morningglory plant response rating (0 to 100 scale)",0%
same,pest or weed control at 500 g/ha,"morningglory; pre-emergence, visual rating, 0 = no effect, 100 = complete control, read-out: Plant response rating, Morningglory",20%
same,pest or weed control at 125 g/ha,pigweed; [5],60%
same,pest or weed control at 500 g/ha,pigweed; [5],70%
same,pest or weed control at 125 g/ha,"pigweed; pre-emergence, 0 = no effect, 100 = complete control, read-out: Pigweed plant response rating (0 to 100 scale)",30%
same,pest or weed control at 500 g/ha,"pigweed; pre-emergence, visual rating, 0 = no effect, 100 = complete control, read-out: Plant response rating, Pigweed",90%
same,pest or weed control at 1000 g/ha,ducksalad,90%
same,pest or weed control at 1000 g/ha,[1],80%
same,pest or weed control at 125 g/ha,giant foxtail; [6],10%
same,pest or weed control at 500 g/ha,giant foxtail; [6],40%
same,pest or weed control at 125 g/ha,"giant foxtail; pre-emergence, 0 = no effect, 100 = complete control, read-out: Foxtail, Giant plant response rating (0 to 100 scale)",10%
same,pest or weed control at 500 g/ha,"giant foxtail; pre-emergence, visual rating, 0 = no effect, 100 = complete control, read-out: Plant response rating, Foxtail, Giant",50%
same,pest or weed control at 125 g/ha,"barnyardgrass [2]; 125 g ai/ha, read-out: Barnyardgrass plant response rating (0 to 100 scale)",50%
same,pest or weed control at 500 g/ha,"barnyardgrass [2]; 500 g ai/ha, visual rating, read-out: Plant response rating, Barnyardgrass",90%
same,pest or weed control at 125 g/ha,blackgrass; 125 g ai/ha,0%
same,pest or weed control at 500 g/ha,blackgrass; 500 g ai/ha,10%
same,pest or weed control at 125 g/ha,Surinam grass; [7],0%
same,pest or weed control at 500 g/ha,Surinam grass; [7],20%
same,pest or weed control at 125 g/ha,"Surinam grass; pre-emergence, 0 = no effect, 100 = complete control, read-out: Surinam Grass plant response rating (0 to 100 scale)",20%
same,pest or weed control at 500 g/ha,"Surinam grass; pre-emergence, visual rating, 0 = no effect, 100 = complete control, read-out: Plant response rating, Surinam Grass",60%
same,pest or weed control at 125 g/ha,velvetleaf; [8],20%
same,pest or weed control at 500 g/ha,velvetleaf; [8],50%
same,pest or weed control at 125 g/ha,"velvetleaf; pre-emergence, 0 = no effect, 100 = complete control, read-out: Velvetleaf plant response rating (0 to 100 scale)",20%
same,pest or weed control at 500 g/ha,"velvetleaf; pre-emergence, visual rating, 0 = no effect, 100 = complete control, read-out: Plant response rating, Velvetleaf",80%
same,plant injury at 125 g/ha,wheat; 125 g ai/ha,10%
same,plant injury at 500 g/ha,wheat; 500 g ai/ha,20%
same,pest or weed control at 125 g/ha,wild oat; 125 g ai/ha,20%
same,pest or weed control at 500 g/ha,wild oat; 500 g ai/ha,20%
same,plant injury at 125 g/ha,"corn; post-emergence, postemergence, visual rating, scale 0 (no effect) to 100 (complete control), read-out: Corn plant response rating",20%
same,plant injury at 500 g/ha,"corn; post-emergence, postemergence, 500 g ai/ha, visual rating, scale 0 (no effect) to 100 (complete control), read-out: Corn plant response rating",40%
same,plant injury at 125 g/ha,"corn; pre-emergence, 0 = no effect, 100 = complete control, read-out: Corn plant response rating (0 to 100 scale)",0%
same,"Corn plant response rating (crop injury, 0 = no effect, 100 = complete kill) at 500 g/ha","corn; pre-emergence, 500 g ai/ha, visual rating, 0 = no effect, 100 = complete control",10%
same,pest or weed control at 1000 g/ha,barnyardgrass [3],80%
same,plant injury at 1000 g/ha,rice,70%
same,pest or weed control at 125 g/ha,large crabgrass; [9],0%
same,pest or weed control at 500 g/ha,large crabgrass; [9],20%
same,pest or weed control at 125 g/ha,"large crabgrass; pre-emergence, 0 = no effect, 100 = complete control, read-out: Crabgrass, Large plant response rating (0 to 100 scale)",30%
same,pest or weed control at 500 g/ha,"large crabgrass; pre-emergence, visual rating, 0 = no effect, 100 = complete control, read-out: Plant response rating, Crabgrass, Large",70%
